Assay results published in ChEMBL document CHEMBL1150749, “Novel Cleistanthane Diterpenoids from Pogostemon auricularis” (1988).

Key:
Format in all cases: functional
Details in all cases: Cavia porcellus
Ileum [1] = test: Inhibition of spasmogen response in guinea pig ileum at 5 ug/mL
Ileum [2] = test: Inhibition of spasmogen response in guinea pig ileum at 2.5 ug/mL
Ileum [3] = test: Inhibition of spasmogen response in guinea pig ileum at 10 ug/mL

Question: Which results are given for `C=C[C@H]1C(=C)CC[C@H]2[C@H]1[C@@H](OC(C)=O)C[C@@H]1[C@]2(C)CCC[C@@]1(C)C(=O)O`?
Answer: inhibition at 5 µg/mL (Ileum [1]): 19%; inhibition at 2.5 µg/mL (Ileum [2]): 10%; inhibition at 10 µg/mL (Ileum [3]): 69%
